Results from patent US12187785B2, “Recombinant protein and fragments thereof, method for producing said recombinant protein, synthetic gene and use of sculptin or recombinant protein for preparing a medicament or pharmaceutical composition for the prophylaxis and/or treatment of thromboembolic diseases or as a direct and specific …” (priority 2017, dated 2025).

What was measured:
thrombin [1] = target: T1, thrombin (Homo sapiens, UniProt P00734); details: literature values; cited from earlier work
[2] = in plasma in healthy human volunteers; intravenously; cited from earlier work
thrombin [3] = target: T1, thrombin; experiment: Thrombin inhibition test of recombinant protein fragments generated by factor Xa; format: biochemical; set-up: Brown and cyan colors represent heavy and light chain of thrombin respectively; details: fragment 100 pM, thrombin 0.1 nM, S-2238 15 μM
Protocol: Recombinant protein (10 μM) was incubated with or without factor Xa 1 μM in phosphate buffer 50 mM containing NaCl 150 mM, and phosphatidylserine and phosphatidylcholine 50 μM, pH 7.4 for 18 h at 37° C. (A) Reaction mixtures were split through reverse phase HPLC column C-18. (B) Gathered peaks (H1-H5) were subjected to MALDI-TOF MS and thrombin inhibition test (see table 1, for correspondent peptide sequence). (C) Typical progress curves for hydrolysis of chromogenic substrate S-2238 15 μM by thrombin 0.1 nM in absence (trace Ctrl) and presence of recombinant protein fragment 100 pM (traces H1 and H3) or preserved recombinant protein (trace Scpt) in phosphate buffer 50 mM containing NaCl 150 mM and 0.1% of PEG 6000, pH 7.4 at 37° C. (D) Percentage of thrombin inhibition by recombinant protein and fragments thereof. Reaction conditions of percentage of thrombin inhibition were obtained from (C).
In addition, recombinant protein was incubated with factor Xa for 18 h and resulting peptides were split by reverse phase chromatography (FIG. 6A). Peaks (named as H1, H2, H3 H4 and H5) were gathered and undergone to mass spectrometry MALDI-TOF (FIG. 6B). In accordance with analysis of mass spectrometry, H1 corresponds to average mass of 5153.57 Da, H2 corresponds to average mass of 3667.50 Da and 4582.40 Da and H3 corresponds to average mass of 8220.55 Da and 6770.60 Da. Similarly, H4 corresponds to average mass of 7299.61 Da and 12427.54 Da and H5 corresponds to 16990.90, 12427.54 Da and 11843.17 Da (FIG. 6B, Table 1). Further, fractions (H1, H2, H3 and H4) were undergone to test of thrombin inhibition (FIG. 6C). Fractions H1, H2, H3 and H4 retained thrombin inhibition activity of about 50%, 45%, 70% and 80% respectively, of preserved no hydrolyzed recombinant protein (FIG. 6D). Peak H5 had mainly preserved recombinant protein, thus it was not considered for test of thrombin inhibition.

CC1CNc2c(cccc2S(=O)(=O)N[C@@H](CCCNC(=N)N)C(=O)N2CC[C@@H](C)C[C@@H]2C(=O)O)C1 (stereo partly drawn) [Argatroban]
Inhibition Type (thrombin [1]): No competing | Half-life [2]: 50 min

Bivalirudin
Inhibition Type (thrombin [1]): No competing | Ki (thrombin [1]): 1.9 ± 2.6 nM | Half-life [2]: 25 min

GKPQGHPHDALEARSDAVHTAVPKMPKGGHGGFEPIPIDYDERALEAR (Sculptin fragments generated by Xa factor) [H1, HPLC peak of recombinant protein hydrolyzed by factor Xa, average mass 5153.57 Da]
thrombin inhibition activity retained, of preserved no hydrolyzed recombinant protein (thrombin [3]): about 50%

B1: H2: HPLC peak of factor Xa hydrolysate, masses 3667.50 and 4582.40 Da (SEQ ID NO: 11 and 12) (protein)
chain 1: SDAVHTAVPKMPKGGHGGFEPIPIDYDERALEAR
chain 2: SDAVHTAVPKMPKGGHGGFEPIPIDYDERALHALEHHHHHH
modifications: Sculptin fragments generated by Xa factor
thrombin inhibition activity retained, of preserved no hydrolyzed recombinant protein (thrombin [3]): ~45%

B2: H3: HPLC peak of factor Xa hydrolysate, masses 8220.55 and 6770.60 Da (SEQ ID NO: 13 and 14) (protein)
chain 1: SDAVHTAVPKMPKGGHGGFEPIPIDYDERALEARSDAVHTAVPKMPKGGHGGFEPIPIDYDERALHALEHHHHHH
chain 2: SDAVHTAVPKMPKGGHGGFEPIPIDYDERALEARSDAVHTAVPKMPKGGHGGFEPIPIDYDER
modifications: Sculptin fragments generated by Xa factor
thrombin inhibition activity retained, of preserved no hydrolyzed recombinant protein (thrombin [3]): ~70%

B3: H4: HPLC peak of factor Xa hydrolysate, masses 7299.61 and 12427.54 Da (SEQ ID NO: 15 and 16) (protein)
chain 1: SDAVHTAVPKMPKGGHGGFEPIPIDYDERALEARSDAVHTAVPKMPKGGHGGFEPIPIDYDERALEAR
chain 2: GKPQGHPHDALEARSDAVHTAVPKMPKGGHGGFEPIPIDYDERALEARSDAVHTAVPKMPKGGLGGFEPIPIDYDERALEARSDAVHTAVPKMPKGGHGGFEPIPIDYDERALEAR
modifications: Sculptin fragments generated by Xa factor
thrombin inhibition activity retained, of preserved no hydrolyzed recombinant protein (thrombin [3]): ~80%
